According to article PMC5365251, “Biophysical assay for tethered signaling reactions reveals tether-controlled activity for the phosphatase SHP-1” (Science Advances, 2017):

System: PEG28-ITIM
Assay: SPR of SHP-1 injected over immobilised PEG28-ITIM: tethered/solution catalysis and reach (MPDPDE fit)
Assay type: biochemical, mouse
Method: A construct expressing murine SHP-1 with an N-terminal 6× His tag was provided by M. H. Brown. Mutation of the SH2 domains was performed using a quick-change strategy. The mutations introduced were R30K and R33E for the N-terminal SH2 domain mutant and R136K for the C-terminal SH2 domain mutant previously shown to result in loss of binding ([6]). All peptides were ordered from PeptideSynthetics and were certified to be >95% pure. Peptides sequences were derived from the membrane-proximal ITIM sequence of mouse LAIR-1 receptor.
Experiments were performed on a Biacore 3000 instrument (GE Healthcare Life Sciences). All experiments were performed at 10°C and with a buffer flow rate of 10 μl/min. The buffer used was Hepes-buffered saline (HBS-EP; GE Healthcare Life Sciences), which contained 10 mM Hepes (pH 7.4), 150 mM NaCl, 3 mM EDTA, and 0.005% Surfactant P20.
A CM5 sensorchip was coupled with streptavidin to near saturation (typically between 4000 and 7000 RU) using the amine coupling kit (GE Healthcare Life Sciences) as described previously ([42]). After streptavidin was coupled, biotinylated peptides were injected to give the indicated concentrations in experimental flow cells, and excess biotin-binding sites were blocked with biotin in HBS-EP. The molar ratio of peptide to streptavidin was kept below 1:1 to ensure that peptide immobilization was random and not clustered on the tetravalent streptavidin molecules. Reference flow cells were treated with buffer and then blocked with biotin; pilot experiments using unphosphorylated control peptides in reference flow cells were indistinguishable from buffer-treated reference flow cells when injected with SHP-1. The chip surface was then conditioned with 5 × 5-min injections of HBS-EP. SHP-1 protein in HBS-EP with 1 mM dithiothreitol was then injected over reference and experimental flow cells in series for 5 min at the indicated concentrations. All SPR data were converted from the reference-subtracted data (in resonance units) to fraction bound by dividing the resonance units by the theoretical maximum resonance units expected if the experimental flow cell was saturated with bound SHP-1.
To determine the concentration of peptide in the assays, we first needed a conversion factor between the resonance units and the mass of peptide at the chip surface. We determined this conversion factor by injecting four concentrations of SHP-1 over a control flow cell on a CM5 chip and plotting the mass of SHP-1 injected against the raw resonance unit change. We repeated this on seven flow cells across four sensor chips to get an average slope of 149 ± 15 RU per g/liter (±SEM). This constant, together with the molecular weight of the peptide, was used to convert between the resonance units of peptides immobilized and the molar concentration at the chip surface. For example, 48.5 RU of PEG28-ITIM (molecular weight, 3221) was immobilized to obtain [peptide] = 97.1 μM (Fig. 2A).
From the MPDPDE model–simulated SPR traces, one would predict that the kcat*(solution) (fig. S4, G and H) and L (fig. S4F) are likely to be very sensitive to small systematic errors in the SPR trace at longer time scales. Nonspecific binding and baseline drift are two well-known sources of such systemic errors that can produce artifacts at long time scales (see fig. S6A for examples). To exclude data affected by these artifacts, we propose a simple quality control check that greatly improves the accuracy of estimating L, kcat*(tethered) , and kcat*(solution) . As a measure of the signal-to-noise ratio at long time points, we took the resonance units 20 s after the injection was completed (noise) and divided it by the resonance units 20 s before the injection finished (signal). […] Data that had evidence of significant artifact were excluded from the study based on this criterion (red data points in fig. S6B). […]

Substance: SHP-1: murine SHP-1 tyrosine phosphatase with an N-terminal 6× His tag, expressed in E. coli
- L (reach parameter), SH2 variants (SHP-1 variants over PEG28-ITIM, average fit Fig. 6B: WT n = 15, N-SH2 mutant n = 3, C-SH2 mutant n = 9): 23.0 nm
- share of time spent in open active conformation in solution (assuming complete open transition on SH2 binding, kcat*(solution) = 0.05 kcat*(tethered)): 5%
- k*cat (tethered) (average of all experiments Fig. 4C, n = 15, SEM printed ± 1.3 × 10^-2, wild-type SHP-1, PEG28-ITIM, 10°C, HBS-EP pH 7.4): 11800 M⁻¹ s⁻¹
- L (reach parameter) (average of all experiments Fig. 4C, n = 15, SEM ± 0.46, wild-type SHP-1, PEG28-ITIM, 10°C, HBS-EP pH 7.4): 23 nm
- k*cat (solution) (average of all experiments Fig. 4C, n = 15, SEM ± 1.15 × 10^-4, wild-type SHP-1, PEG28-ITIM, 10°C, HBS-EP pH 7.4): 603 M⁻¹ s⁻¹
- increase in tethered over solution catalytic rate (allosteric activation) (wild-type SHP-1, PEG28-ITIM, kcat*(tethered) versus kcat*(solution)): 20 fold
